Test results: ChEMBL document CHEMBL5463729, “Data for DCP probe BAY 1753011” (2023)

What was measured:
Conditions in all cases: Compound concentration 10.0 uM
[1] = target: Activin receptor type-1B (Homo sapiens) (UniProt P36896); test: Inhibition of ALK4(h) at 10.0 µM in the Eurofins Kinase panel
[2] = target: Serine/threonine-protein kinase A-Raf (Homo sapiens) (UniProt P10398); test: Inhibition of A-Raf(h) at 10.0 µM in the Eurofins Kinase panel
[3] = target: Calcium/calmodulin-dependent protein kinase type II subunit gamma (Homo sapiens) (UniProt Q13555); test: Inhibition of CaMKIIgamma(h) at 10.0 µM in the Eurofins Kinase panel
[4] = target: Cyclin-dependent kinase-like 4 (Homo sapiens) (UniProt Q5MAI5); test: Inhibition of CDKL4(h) at 10.0 µM in the Eurofins Kinase panel
[5] = target: Casein kinase I isoform delta (Homo sapiens) (UniProt P48730); test: Inhibition of CK1delta(h) at 10.0 µM in the Eurofins Kinase panel
Casein kinase I isoform delta (Homo sapiens), sequence (P48730 whole entry, looked up, canonical isoform): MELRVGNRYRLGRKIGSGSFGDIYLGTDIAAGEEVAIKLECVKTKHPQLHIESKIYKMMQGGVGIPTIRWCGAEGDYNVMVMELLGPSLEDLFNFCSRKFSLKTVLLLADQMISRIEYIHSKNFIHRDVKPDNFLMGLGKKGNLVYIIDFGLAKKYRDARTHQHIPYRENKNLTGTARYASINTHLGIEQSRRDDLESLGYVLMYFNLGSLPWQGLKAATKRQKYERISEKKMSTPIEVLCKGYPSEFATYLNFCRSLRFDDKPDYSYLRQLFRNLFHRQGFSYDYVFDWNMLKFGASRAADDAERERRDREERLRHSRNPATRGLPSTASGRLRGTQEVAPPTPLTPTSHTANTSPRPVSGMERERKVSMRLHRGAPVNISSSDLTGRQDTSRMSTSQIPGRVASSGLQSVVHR

[6] = target: Serine/threonine-protein kinase DCLK3 (Homo sapiens) (UniProt Q9C098); test: Inhibition of DCAMKL3(h) at 10.0 µM in the Eurofins Kinase panel
[7] = target: Ephrin type-A receptor 5 (Homo sapiens) (UniProt P54756); test: Inhibition of EphA5(h) at 10.0 µM in the Eurofins Kinase panel
[8] = target: Receptor tyrosine-protein kinase erbB-4 (Homo sapiens) (UniProt Q15303); test: Inhibition of ErbB4(h) at 10.0 µM in the Eurofins Kinase panel
Receptor tyrosine-protein kinase erbB-4 (Homo sapiens), sequence (Q15303 whole entry): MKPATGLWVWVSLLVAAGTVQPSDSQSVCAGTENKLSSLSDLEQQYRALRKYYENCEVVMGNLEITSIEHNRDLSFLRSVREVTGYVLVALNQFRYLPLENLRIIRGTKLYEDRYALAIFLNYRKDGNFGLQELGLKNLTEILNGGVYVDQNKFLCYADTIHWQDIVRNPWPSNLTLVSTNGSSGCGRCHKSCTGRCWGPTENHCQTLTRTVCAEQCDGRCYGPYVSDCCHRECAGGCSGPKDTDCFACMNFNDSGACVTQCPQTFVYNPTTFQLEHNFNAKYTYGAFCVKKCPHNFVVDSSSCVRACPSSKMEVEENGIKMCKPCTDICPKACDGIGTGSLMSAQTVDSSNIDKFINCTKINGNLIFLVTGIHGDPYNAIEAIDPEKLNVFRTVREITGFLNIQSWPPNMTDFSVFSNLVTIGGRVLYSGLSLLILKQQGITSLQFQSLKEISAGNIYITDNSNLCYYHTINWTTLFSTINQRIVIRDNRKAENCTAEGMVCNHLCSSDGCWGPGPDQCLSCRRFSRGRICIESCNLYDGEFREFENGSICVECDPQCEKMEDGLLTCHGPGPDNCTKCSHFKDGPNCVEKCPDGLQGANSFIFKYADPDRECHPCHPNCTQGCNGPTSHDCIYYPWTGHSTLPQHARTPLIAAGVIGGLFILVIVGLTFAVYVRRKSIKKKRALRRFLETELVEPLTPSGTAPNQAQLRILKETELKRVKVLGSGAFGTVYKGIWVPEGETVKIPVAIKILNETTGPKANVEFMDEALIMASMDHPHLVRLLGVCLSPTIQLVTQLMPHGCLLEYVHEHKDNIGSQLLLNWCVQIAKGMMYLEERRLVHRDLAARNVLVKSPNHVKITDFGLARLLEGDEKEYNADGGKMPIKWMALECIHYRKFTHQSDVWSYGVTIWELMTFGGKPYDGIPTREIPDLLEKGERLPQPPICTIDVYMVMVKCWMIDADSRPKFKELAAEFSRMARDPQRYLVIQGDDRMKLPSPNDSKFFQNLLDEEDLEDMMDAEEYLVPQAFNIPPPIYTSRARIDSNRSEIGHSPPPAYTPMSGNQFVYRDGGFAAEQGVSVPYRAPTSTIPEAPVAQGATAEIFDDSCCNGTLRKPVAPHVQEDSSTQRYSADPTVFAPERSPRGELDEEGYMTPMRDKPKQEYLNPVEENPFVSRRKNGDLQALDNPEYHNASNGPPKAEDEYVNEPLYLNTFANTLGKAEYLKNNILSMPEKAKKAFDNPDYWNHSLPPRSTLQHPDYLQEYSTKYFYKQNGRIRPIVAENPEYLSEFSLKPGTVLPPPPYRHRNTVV

[9] = target: Focal adhesion kinase 1 (Homo sapiens) (UniProt Q05397); test: Inhibition of FAK(h) at 10.0 µM in the Eurofins Kinase panel
[10] = target: Macrophage colony-stimulating factor 1 receptor (Homo sapiens) (UniProt P07333); test: Inhibition of Fms(h) at 10.0 µM in the Eurofins Kinase panel
[11] = target: Inhibitor of nuclear factor kappa-B kinase subunit epsilon (Homo sapiens) (UniProt Q14164); test: Inhibition of IKKepsilon(h) at 10.0 µM in the Eurofins Kinase panel
[12] = target: Megakaryocyte-associated tyrosine-protein kinase (Homo sapiens) (UniProt P42679); test: Inhibition of MATK(h) at 10.0 µM in the Eurofins Kinase panel
[13] = target: Myosin light chain kinase (Homo sapiens) (UniProt Q32MK0); test: Inhibition of MLCK(h) at 10.0 µM in the Eurofins Kinase panel
[14] = target: Serine/threonine-protein kinase 4 (Homo sapiens) (UniProt Q13043); test: Inhibition of MST1(h) at 10.0 µM in the Eurofins Kinase panel
[15] = target: Serine/threonine-protein kinase mTOR (Homo sapiens) (UniProt P42345); test: Inhibition of mTOR(h) at 10.0 µM in the Eurofins Kinase panel
[16] = target: Serine/threonine-protein kinase NLK (Homo sapiens) (UniProt Q9UBE8); test: Inhibition of NLK (h) at 10.0 µM in the Eurofins Kinase panel
Serine/threonine-protein kinase NLK (Homo sapiens), sequence (Q9UBE8 whole entry): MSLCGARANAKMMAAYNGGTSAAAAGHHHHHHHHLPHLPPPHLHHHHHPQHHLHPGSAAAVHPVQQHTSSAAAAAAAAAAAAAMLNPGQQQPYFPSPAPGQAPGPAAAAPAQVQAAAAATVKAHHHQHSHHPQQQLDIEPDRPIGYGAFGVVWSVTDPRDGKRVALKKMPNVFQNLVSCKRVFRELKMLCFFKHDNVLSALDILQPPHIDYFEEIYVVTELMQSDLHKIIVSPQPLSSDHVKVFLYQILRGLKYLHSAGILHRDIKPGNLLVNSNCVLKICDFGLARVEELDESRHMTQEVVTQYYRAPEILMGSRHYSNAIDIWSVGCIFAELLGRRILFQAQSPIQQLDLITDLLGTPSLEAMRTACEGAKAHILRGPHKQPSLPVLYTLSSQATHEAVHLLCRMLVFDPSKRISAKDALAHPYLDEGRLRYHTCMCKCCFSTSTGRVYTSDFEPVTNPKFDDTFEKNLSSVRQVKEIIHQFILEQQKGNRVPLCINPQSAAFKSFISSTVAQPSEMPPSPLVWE

[17] = target: NUAK family SNF1-like kinase 2 (Homo sapiens) (UniProt Q9H093); test: Inhibition of NUAK2(h) at 10.0 µM in the Eurofins Kinase panel
[18] = target: Protein kinase C eta type (Homo sapiens) (UniProt P24723); test: Inhibition of PKCeta(h) at 10.0 µM in the Eurofins Kinase panel
[19] = target: Protein-tyrosine kinase 2-beta (Homo sapiens) (UniProt Q14289); test: Inhibition of Pyk2(h) at 10.0 µM in the Eurofins Kinase panel
[20] = target: Mitogen-activated protein kinase 12 (Homo sapiens) (UniProt P53778); test: Inhibition of SAPK3(h) at 10.0 µM in the Eurofins Kinase panel
[21] = target: Tyrosine-protein kinase Srms (Homo sapiens) (UniProt Q9H3Y6); test: Inhibition of SRMS(h) at 10.0 µM in the Eurofins Kinase panel
Tyrosine-protein kinase Srms (Homo sapiens), sequence (Q9H3Y6 whole entry): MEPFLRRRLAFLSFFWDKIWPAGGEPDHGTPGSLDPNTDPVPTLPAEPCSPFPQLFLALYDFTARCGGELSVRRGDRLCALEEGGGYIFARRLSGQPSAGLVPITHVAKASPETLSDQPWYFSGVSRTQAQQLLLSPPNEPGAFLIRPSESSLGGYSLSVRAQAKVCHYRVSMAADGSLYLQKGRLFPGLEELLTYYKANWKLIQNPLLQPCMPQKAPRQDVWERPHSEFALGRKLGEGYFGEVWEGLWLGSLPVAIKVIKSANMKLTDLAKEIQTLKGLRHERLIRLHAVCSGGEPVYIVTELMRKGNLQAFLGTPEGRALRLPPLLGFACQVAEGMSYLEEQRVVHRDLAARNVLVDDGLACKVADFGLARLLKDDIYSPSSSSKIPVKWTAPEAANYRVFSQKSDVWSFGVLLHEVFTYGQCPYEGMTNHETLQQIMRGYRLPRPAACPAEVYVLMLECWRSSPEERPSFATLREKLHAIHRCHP

[22] = target: T1, 5-hydroxytryptamine receptor 3A (Homo sapiens) (UniProt P46098)
T1 sequence (whole entry): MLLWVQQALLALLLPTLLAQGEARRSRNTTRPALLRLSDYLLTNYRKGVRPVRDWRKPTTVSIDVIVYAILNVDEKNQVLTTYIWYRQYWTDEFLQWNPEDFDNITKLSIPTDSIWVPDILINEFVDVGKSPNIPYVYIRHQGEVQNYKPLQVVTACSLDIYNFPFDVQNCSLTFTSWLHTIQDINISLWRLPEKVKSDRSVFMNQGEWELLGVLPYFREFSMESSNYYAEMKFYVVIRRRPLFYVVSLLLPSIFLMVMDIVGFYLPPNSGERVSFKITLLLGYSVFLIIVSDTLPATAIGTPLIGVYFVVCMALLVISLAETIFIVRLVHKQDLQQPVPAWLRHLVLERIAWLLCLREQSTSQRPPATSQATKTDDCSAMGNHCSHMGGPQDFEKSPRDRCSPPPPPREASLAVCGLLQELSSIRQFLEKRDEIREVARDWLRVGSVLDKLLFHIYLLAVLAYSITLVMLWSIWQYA

[23] = target: D(2) dopamine receptor (Homo sapiens) (UniProt P14416)
D(2) dopamine receptor (Homo sapiens), sequence (P14416 whole entry): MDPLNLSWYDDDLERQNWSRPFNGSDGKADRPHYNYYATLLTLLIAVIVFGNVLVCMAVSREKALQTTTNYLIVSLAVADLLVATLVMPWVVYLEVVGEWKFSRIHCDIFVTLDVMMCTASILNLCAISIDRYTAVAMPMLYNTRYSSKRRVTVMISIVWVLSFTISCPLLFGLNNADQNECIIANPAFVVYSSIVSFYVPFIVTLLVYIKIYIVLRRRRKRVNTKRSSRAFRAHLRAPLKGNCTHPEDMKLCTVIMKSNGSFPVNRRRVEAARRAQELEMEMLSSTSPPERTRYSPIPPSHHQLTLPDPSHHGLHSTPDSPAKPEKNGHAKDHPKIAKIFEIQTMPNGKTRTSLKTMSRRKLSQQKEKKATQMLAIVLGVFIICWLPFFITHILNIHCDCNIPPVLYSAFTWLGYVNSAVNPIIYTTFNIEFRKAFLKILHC

[24] = target: Estrogen receptor (Homo sapiens) (UniProt P03372)
Estrogen receptor (Homo sapiens), sequence (P03372 whole entry): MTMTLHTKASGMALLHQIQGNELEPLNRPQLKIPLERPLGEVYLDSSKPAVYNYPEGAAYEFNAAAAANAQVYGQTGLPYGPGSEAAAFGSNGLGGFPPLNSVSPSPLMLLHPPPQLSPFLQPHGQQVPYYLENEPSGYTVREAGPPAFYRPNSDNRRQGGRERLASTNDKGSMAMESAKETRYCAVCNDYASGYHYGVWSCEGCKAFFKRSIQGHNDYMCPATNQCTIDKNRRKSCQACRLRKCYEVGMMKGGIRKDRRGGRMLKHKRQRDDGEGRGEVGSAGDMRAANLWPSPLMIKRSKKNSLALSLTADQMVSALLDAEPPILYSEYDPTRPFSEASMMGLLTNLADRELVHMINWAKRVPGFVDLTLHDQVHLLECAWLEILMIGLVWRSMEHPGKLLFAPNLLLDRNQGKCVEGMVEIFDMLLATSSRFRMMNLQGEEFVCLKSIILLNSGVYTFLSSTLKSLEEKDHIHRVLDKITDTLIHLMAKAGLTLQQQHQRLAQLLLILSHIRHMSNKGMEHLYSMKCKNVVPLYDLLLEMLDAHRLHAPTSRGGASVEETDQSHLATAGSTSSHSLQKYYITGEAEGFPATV

[25] = target: Glutamate NMDA receptor (Rattus norvegicus) (UniProt P35439+Q00959+Q00960+Q00961+Q62645+Q8VHN2+Q9R1M7)
[26] = target: T2, 5-hydroxytryptamine receptor 1A (Homo sapiens) (UniProt P08908)
T2 sequence (whole entry): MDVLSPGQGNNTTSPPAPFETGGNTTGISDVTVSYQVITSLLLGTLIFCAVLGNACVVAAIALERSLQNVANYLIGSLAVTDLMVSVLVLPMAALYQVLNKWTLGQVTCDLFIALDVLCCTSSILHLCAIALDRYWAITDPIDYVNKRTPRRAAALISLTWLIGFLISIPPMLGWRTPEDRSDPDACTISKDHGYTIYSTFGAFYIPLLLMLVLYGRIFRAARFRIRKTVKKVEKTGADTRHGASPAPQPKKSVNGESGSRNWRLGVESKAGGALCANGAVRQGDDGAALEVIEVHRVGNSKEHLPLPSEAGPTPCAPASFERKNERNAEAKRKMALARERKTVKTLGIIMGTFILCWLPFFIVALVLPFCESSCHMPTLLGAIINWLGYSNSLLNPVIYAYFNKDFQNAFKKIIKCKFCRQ

[27] = target: Sodium-dependent noradrenaline transporter (Homo sapiens, UniProt P23975)
[28] = target: Sodium-dependent serotonin transporter (Homo sapiens) (UniProt P31645)
[29] = target: Serine/threonine-protein kinase PAK 5 (Homo sapiens) (UniProt Q9P286); test: Inhibition of PAK5(h) at 10.0 µM in the Eurofins Kinase panel

Serine/threonine-protein kinase A-Raf (Homo sapiens), sequence (P10398 whole entry): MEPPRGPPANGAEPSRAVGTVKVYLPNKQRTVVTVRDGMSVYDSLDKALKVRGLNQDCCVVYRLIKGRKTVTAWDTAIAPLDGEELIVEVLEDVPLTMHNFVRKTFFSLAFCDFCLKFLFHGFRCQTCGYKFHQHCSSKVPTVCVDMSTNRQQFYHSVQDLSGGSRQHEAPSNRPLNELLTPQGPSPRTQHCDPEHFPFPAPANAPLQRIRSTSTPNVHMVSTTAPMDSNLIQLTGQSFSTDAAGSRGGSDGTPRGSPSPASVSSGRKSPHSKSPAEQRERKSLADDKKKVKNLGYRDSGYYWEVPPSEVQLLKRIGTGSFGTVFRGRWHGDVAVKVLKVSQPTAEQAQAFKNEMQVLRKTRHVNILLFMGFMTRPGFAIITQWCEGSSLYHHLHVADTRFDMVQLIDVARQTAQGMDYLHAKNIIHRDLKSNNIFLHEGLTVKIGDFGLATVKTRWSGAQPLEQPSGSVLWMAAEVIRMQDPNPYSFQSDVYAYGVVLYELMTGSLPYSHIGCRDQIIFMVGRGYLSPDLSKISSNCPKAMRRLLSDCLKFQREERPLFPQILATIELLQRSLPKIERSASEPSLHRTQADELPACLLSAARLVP
Activin receptor type-1B (Homo sapiens), sequence (P36896 whole entry): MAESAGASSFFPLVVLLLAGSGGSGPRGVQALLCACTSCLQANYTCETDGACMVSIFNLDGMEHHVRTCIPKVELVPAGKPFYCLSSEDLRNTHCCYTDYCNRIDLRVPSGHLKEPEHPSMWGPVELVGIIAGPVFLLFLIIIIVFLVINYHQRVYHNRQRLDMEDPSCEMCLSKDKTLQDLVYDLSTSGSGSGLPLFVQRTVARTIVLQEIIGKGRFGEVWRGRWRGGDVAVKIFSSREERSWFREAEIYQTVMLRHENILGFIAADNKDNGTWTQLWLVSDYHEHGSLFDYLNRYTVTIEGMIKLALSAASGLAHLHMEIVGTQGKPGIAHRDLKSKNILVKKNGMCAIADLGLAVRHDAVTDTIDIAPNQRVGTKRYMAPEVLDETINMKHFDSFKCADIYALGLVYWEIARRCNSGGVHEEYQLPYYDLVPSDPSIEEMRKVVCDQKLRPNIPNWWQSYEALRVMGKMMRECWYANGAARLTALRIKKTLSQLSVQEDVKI

| SMILES | inhibition [1] | inhibition [2] | inhibition [3] | inhibition [4] | inhibition [5] | inhibition [6] | inhibition [7] | inhibition [8] | inhibition [9] | inhibition [10] | inhibition [11] | inhibition [12] | inhibition [13] | inhibition [14] | inhibition [15] | inhibition [16] | inhibition [17] | inhibition [18] | inhibition [19] | inhibition [20] | other results |
| --- | --- | --- | --- | --- | --- | --- | --- | --- | --- | --- | --- | --- | --- | --- | --- | --- | --- | --- | --- | --- | --- |
| O=c1n(Cc2cncn2-c2cccc(Cl)c2)nc(-c2ccc(Cl)cc2)n1C[C@H](O)C(F)(F)F | 3.01% | 2.57% | 0.32% | -1.89% | -5.22% | -6.07% | -7.8% | -8.65% | -5.35% | 5.33% | 0.02% | 4.16% | 1.74% | 2.53% | 5.25% | -1.74% | -1.01% | 10.8% | 3.57% | -3.96% | inhibition [21]: 4.78%; inhibition [22]: -2.44%; inhibition [23]: -3%; inhibition [24]: 4%; inhibition [25]: -4%; inhibition [26]: -1%; inhibition [27]: 8%; inhibition [28]: 1%; inhibition [29]: 1.49% |
| C[C@H](O)c1nc(Cn2nc(-c3ccc(Cl)cc3)n(C[C@H](O)C(F)(F)F)c2=O)nn1-c1cccc(Cl)c1 [PECAVAPTAN] | 4.03% | 1.05% | -3.01% | 5.63% | -3.11% | -4.82% | -3.72% | -4.41% | -3.02% | -2.47% | 3.03% | 0.84% | 1.69% | 9.3% | -1.45% | -2.51% | 4.99% | 4.39% | -1.95% | -0.09% | inhibition [21]: 7.11%; inhibition [22]: -4.35%; inhibition [23]: 14%; inhibition [24]: 8%; inhibition [25]: -10%; inhibition [26]: -2%; inhibition [27]: 62%; inhibition [28]: 6%; inhibition [29]: -3.61% |
